Where two headings read alike, the source gives them in different places.
Assays:
[1] = system: HMLER cells; conditions: MTT, 72 h incubation; cited from earlier work
[2] = system: HMLER-shEcad cells; conditions: cited from earlier work; for IC50: MTT, 72 h incubation
[3] = system: HMLER-shEcad mammospheres; design: method as in PMID 26865551; conditions: previous work; cited from earlier work
[4] = system: HMLER-shEcad mammospheres; assay: Mammosphere formation assay (number and size of mammospheres); assay type: cell-based, human; conditions: HMLER-shEcad cells in suspension, treated at respective IC20 value for 5 days
Description: (§1) On day 1, 5000 HMLER-shEcad cells were seeded into each well of a 96-well ultralow-attachment plate. The culture media used was MEGM with B27 (Invitrogen), 20 ng/mL EGF, and 4 μg/mL heparin (Sigma). Compounds of interest were added to the HMLER-shEcad cells at various concentrations (0–133 μM), and the suspensions were incubated for 5 days. On day 6, the mammospheres were imaged and counted using a standard microscope. Afterwhich, TOX8 (Sigma) (20 µL) was added to each well and incubated for 16 h. On day 7, the solutions in each well were transferred to a black 96-well plate and the fluorescence was measured using a plate reader, 590 nm (λex = 560 nm). The arbitrary fluorescence values were normalised with respect to control wells (containing DMSO), and dose–response curves were plotted to determine the IC50 values. Three independent experiments were carried out, with each concentration having three repeats […].

[5] = system: HMLER-shEcad mammospheres; design: method as in PMID 26806362, PMID 27774561, PMID 28932846; conditions: 120 h incubation, read-out: Mammosphere IC50; cited from earlier work
[6] = system: HMLER cells; assay: MTT assay, bulk breast cancer cells (HMLER); assay type: cell-based, human; conditions: 72 h incubation
Description: (§2) HEK 293T human embryonic kidney cells purchased from American Type Culture Collection (ATCC, Manassas, VA, USA) were grown in DMEM (Dulbecco’s Modified Eagle’s Medium) with FBS (fetal bovine serum, 10%), and penicillin/streptomycin (1%). Human mammary epithelial CSC-depleted HMLER and human mammary epithelial CSC-enriched HMLER-shEcad cells were obtained from Prof. R.A. Weinberg (Whitehead Institute, MIT). These cells were grown in MEGM (Mammary Epithelial Cell Growth Medium) with BPE, hydrocortisone, hEGF, insulin, and gentamicin/amphotericin-B. All of the cells used in this study were cultured at 37 °C within a humidified incubator with a CO2 controller to maintin CO2 levels at 5%.
(§3) On day 1, 5000 cells (of the appropriate cell line) were plated in each well of a 96-well plate. The cells were then left to attach to the bottom of the wells overnight. On day 2, the compounds of interest were added (at different concentrations, 0.2–100 μM). The cells were incubated with the compounds for 72 h. The volume of each well at this stage was 200 μL. If DMSO was used to aid solubilization of the compounds, then the same amount of DMSO was also present in control wells. […] The absorption of each well was measured using a plate reader at 550 nm. […]

[7] = system: HMLER-shEcad cells; assay: MTT assay, breast CSC-like cells (HMLER-shEcad); assay type: cell-based, human; conditions: 72 h incubation
Description: as §2, §3

[8] = system: HEK 293T cells; assay: MTT assay, human embryonic kidney (HEK 293T) cells; assay type: cell-based; conditions: for IC50: MTT, 72 h incubation
Description: as §2
On day 1, 5000 cells (of the appropriate cell line) were plated in each well of a 96-well plate. The cells were then left to attach to the bottom of the wells overnight. On day 2, the compounds of interest were added (at different concentrations, 0.2–100 μM). The cells were incubated with the compounds for 72 h. The volume of each well at this stage was 200 μL. If DMSO was used to aid solubilization of the compounds, then the same amount of DMSO was also present in control wells. On day 5, a solution of 3-(4,5-dimethylthiazol-2-yl)-2,5-diphenyltetrazolium bromide (MTT) (4 mg/mL) predissolved in PBS was added to each well of the 96-well plate (20 μL). After a further 4 h incubation, the media/MTT solution was removed and the resultant purple formazan crystals were dissolved in DMSO (200 μL). The absorption of each well was measured using a plate reader at 550 nm. The absorption values were normalised according to the control wells and dose—response curves were plotted to determine the IC50 values. Three independent experiments were carried out, with each concentration having six repeats (n = 18).

[9] = system: HMLER-shEcad mammospheres; assay: Mammosphere viability assay (TOX8); assay type: cell-based, human; conditions: TOX8, 5 days (120 h) incubation
Description: as §1

[10] = LogP by shake-flask method with UV-Vis spectroscopy; assay type: physicochemical; conditions: octanol/water, 100 µM, shaken 24 h, room temperature
Description: The shake-flask method in combination with UV-Vis spectroscopy was used to determine the LogP values of 2–5. Briefly, to a suspension of water (500 μL) and octanol (500 μL), 2–5 was added, giving a final concentration of 100 µM. The mixture was shaken for 24 h (room temperature). Using centrifugation, the water and octanol layers were separated and the concentration of 2–5 in each layer was determined using UV-Vis spectroscopy.

[11] = UV-Vis stability study in PBS:DMSO; assay type: physicochemical; conditions: 50 µM in PBS:DMSO (200:1), 24 h at 37 °C
From the text: The shake-flask method was used to determine the lipophilicity (LogP) of 2–5. This involves determining the amount of a given compound partitioned between octanol and water using UV-Vis spectroscopy. […] The size of the polypyridyl ligand has a clear effect on lipophilicity, with LogP values increasing according to the following order; 2 < 3 < 4 < 5. The hydrophobicity of 2–5 implies that the zinc(II) complexes are likely to easily enter cells. […] The metal-perturbed π-π* and metal-to-ligand charge-transfer (MLCT) absorption bands of 2 (50 µM) in PBS:DMSO (200:1) were constant for 24 h at 37 °C (Figure S7), indicative of stability.

[12] = UV-Vis stability study in MEGM/DMSO; assay type: physicochemical; conditions: 50 µM in MEGM/DMSO (200:1), 24 h at 37 °C

Compound	IC50 [1]	IC50 [2]	IC50 [6]	IC50 [7]	IC50 [8]	IC50 [9]	LogP [10]	other results
N.N.O=C([O-])C1(C(=O)[O-])CCC1.[Pt+2] [carboplatin]	67.3 ± 2.8 µM	72.3 ± 7.9 µM						
N.N.[Cl][Pt][Cl] [cisplatin]	3.4 ± 0.5 µM	4.9 ± 0.4 µM						
COc1ccc2c(c1)c(CC(=O)O)c(C)n2C(=O)c1ccc(Cl)cc1 [indomethacin]								toxicity towards CSC-like cells ([2]; previous work): non-toxic; mammosphere inhibitory effect [3]: poor
CC[C@@H](C(=O)[C@@H](C)[C@@H](O)[C@H](C)[C@@H]1O[C@@H]([C@@H](CC)C(=O)O)CC[C@@H]1C)[C@H]1O[C@]2(C=C[C@@H](O)[C@]3(CC[C@@](C)([C@H]4CC[C@](O)(CC)[C@H](C)O4)O3)O2)[C@H](C)C[C@@H]1C [salinomycin]	11.4 ± 0.4 µM	4.2 ± 0.3 µM						decrease in mammospheres formed [4]: 37%; IC50 [5]: 18.5 ± 1.5 µM
Zn(indomethacin)2(1,10-phenanthroline) [Compound 3]			1.1 ± 0.05 µM	1.1 ± 0.08 µM	2.3 ± 0.1 µM	44.1 ± 0.6 µM	0.97	
Zn(indomethacin)2(2,2′-bipyridine) [Compound 2]			1.2 ± 0.02 µM	0.7 ± 0.04 µM	20 ± 3.9 µM	> 133 µM	0.89	fold less potent toward HEK 293T cells than HMLER and HMLER-shEcad cells ([8]; ratio of IC50 values, p < 0.05): up to 17 fold; stability: metal-perturbed π-π* and MLCT absorption bands [11]: constant; stability: UV-Vis absorption bands [12]: unaltered

Source: PMC6225474, “Polypyridyl Zinc(II)-Indomethacin Complexes with Potent Anti-Breast Cancer Stem Cell Activity” (Molecules : A Journal of Synthetic Chemistry and Natural …, 2018)
